In US11214803B2, “Modulators of YAP1 expression” (Ionis Pharmaceuticals, Inc., priority 2019, dated 2022):
Strand notation (5' to 3'): a small letter for the sugar, then the base; units joined by * are phosphorothioate-linked, units joined directly phosphodiester-linked; [ ] holds rarer units or linkages, { } end groups; capitals alone tell only the bases. e = 2'-O-(2-methoxyethyl) (MOE); k = constrained ethyl (cEt); [5mC] = 5-methylcytosine; d = 2'-deoxy (DNA); m = 2'-O-methyl

System: Yap1 mRNA
Assay: Antisense inhibition of human Yap1 in SNU-449 cells by modified oligonucleotides, single dose (Example 5, RTS36584)
Type: cell-based
In short: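 Values are % of untreated control: Yap1 mRNA by quantitative RT-PCR (RTS36584), normalized to RIBOGREEN total RNA. Oligonucleotides were dosed at 2,000 nM, free uptake, in SNU-449 cells, with roughly 48 h exposure before RNA isolation.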

[1] = Table 46, Yap1 mRNA as percent of untreated control, SNU-449 cells, single dose
[2] = Table 41, SNU-449 cells, 10,000 cells per well, free uptake, 2,000 nM modified oligonucleotide, approximately 48 hours, RTS36584, normalized to RIBOGREEN, Yap1 mRNA relative to untreated control cells
[3] = Table 42 (separate experiment), SNU-449 cells, 10,000 cells per well, free uptake, 2,000 nM modified oligonucleotide, approximately 48 hours, RTS36584, normalized to RIBOGREEN, Yap1 mRNA relative to untreated control cells
[4] = Table 49, Yap1 mRNA level relative to untreated control, modified oligonucleotides targeting SEQ ID NO.: 1 and 2
[5] = Table 48, Yap1 mRNA level relative to untreated control, modified oligonucleotides targeting SEQ ID NO.: 1 and 2
[6] = Table 45, Yap1 mRNA as percent of untreated control, SNU-449 cells, single dose
[7] = Table 50, Yap1 mRNA remaining as percent of untreated control (UT), SNU-449 cells, single dose

1198838 (kT*kT*dT*dG*dG*dA*dA*dG*dA*dT*d[5mC]*kT*eG*kA*eA*kA; antisense) [Compound 1198838]
YAP1 (% UT) [1]: 66 % UT

1198737 (k[5mC]*eT*kG*dA*dG*dG*dT*dA*dT*dA*dA*d[5mC]*eT*eG*kG*kG; antisense) [Compound 1198737]
YAP1 (% UTC) [2]: 24 % UTC

1200819 (kT*kT*kA*dA*dG*mC*dA*d[5mC]*dT*dT*dT*dT*dA*k[5mC]*kA*kT; antisense) [Compound 1200819]
YAP1 (% UT) (Table 52, Yap1 mRNA, modified oligonucleotides targeting SEQ ID NO: 1 and 2): 101 % UT

1197190 (antisense k[5mC]*kT*kT*dT*dG*dG*dA*dA*dG*dA*dT*d[5mC]*dT*kG*kA*kA) [Compound 1197190]
YAP1 (% UT) (Yap1 mRNA, percent of untreated control, modified oligonucleotides targeting SEQ ID NO: 1 and 2, Table 47): 57 % UT

1198680 (antisense k[5mC]*kT*dT*dA*dT*dA*dT*dG*dG*dT*dT*dT*kT*eG*kT*eG) [Compound 1198680]
YAP1 (% UTC) [3]: 28 % UTC

1198357 (kT*kT*kA*dA*dA*dG*dT*dG*dT*dA*dT*dG*kT*e[5mC]*kA*eG; antisense) [Compound 1198357]
YAP1 (% UT) [4]: 21 % UT

1198356 (kT*kA*kA*dA*dG*dT*dG*dT*dA*dT*dG*dT*k[5mC]*eA*kG*eA; antisense) [Compound 1198356]
YAP1 (% UT) [4]: 5 % UT

1198723 (kA*eG*kT*dA*dT*dG*dT*dG*dG*d[5mC]*dA*dA*eT*eA*kA*kT; antisense) [Compound 1198723]
YAP1 (% UTC) (Table 40 (separate experiment), SNU-449 cells, 10,000 cells per well, free uptake, 2,000 nM oligonucleotide, approx. 48 hours, RTS36584, normalized to RIBOGREEN, Yap1 mRNA relative to untreated control): 57 % UTC

1198654 (kA*k[5mC]*dT*dT*dT*dT*dA*d[5mC]*dA*dT*dT*dA*kG*eG*kA*eA; antisense) [Compound 1198654]
YAP1 (% UTC) [2]: 91 % UTC

1198824 (kA*kG*dG*dT*dA*dT*dA*dA*d[5mC]*dT*dG*kG*eG*k[5mC]*eA*kA; antisense) [Compound 1198824]
YAP1 (% UT) [1]: 72 % UT

1197216 (antisense kA*kA*kA*dG*dT*dG*dT*dA*dT*dG*dT*d[5mC]*dA*kG*kA*kA) [Compound 1197216]
YAP1 (% UT) [5]: 12 % UT

1198908 (kT*kA*dT*dA*dA*d[5mC]*dT*dG*dG*dG*d[5mC]*kA*dA*kA*dT*kT; antisense) [Compound 1198908]
YAP1 (% UTC) [6]: 124 % UTC

1198930 (kA*kT*dA*dG*dT*dG*d[5mC]*dT*dT*dT*dG*kG*dA*kA*dG*kA; antisense) [Compound 1198930]
YAP1 (% UTC) [6]: 68 % UTC

1198932 (kT*kT*dA*dG*dG*dA*dT*dG*d[5mC]*dA*dT*kG*dG*kT*dT*kT; antisense) [Compound 1198932]
YAP1 (% UTC) [6]: 35 % UTC

1197235 (antisense kA*kT*kT*dA*mG*dA*dG*dT*dA*dT*dG*dT*dG*kG*k[5mC]*kA) [Compound 1197235]
YAP1 (% UT) [7]: 16 % UT

1198553 (antisense kT*kA*kG*dA*dG*dT*dA*dT*dG*dT*dG*dG*k[5mC]*kA*kA*eT) [Compound 1198553]
YAP1 (% UT) [4]: 13 % UT

1198606 (antisense kT*kG*kT*dA*dA*dT*dA*dT*dT*dG*d[5mC]*dA*kA*kT*k[5mC]*eT) [Compound 1198606]
YAP1 (% UT) [7]: 25 % UT

1198650 (kA*kA*d[5mC]*dA*d[5mC]*dT*dG*dA*dG*dG*dT*dA*kT*eA*kA*e[5mC]) [Compound 1198650]
YAP1 (% UTC) [3]: 88 % UTC

1198600 (antisense kG*kA*k[5mC]*dA*dA*d[5mC]*dT*d[5mC]*dT*dT*dA*dT*kA*kT*kG*eG) [Compound 1198600]
YAP1 (% UT) [7]: 72 % UT

1198371 (kA*dT*dT*dG*dT*d[5mC]*dT*d[5mC]*dA*dT*dG*k[5mC]*e[5mC]*kT*eT*kA; antisense) [Compound 1198371]
YAP1 (% UTC) (Table 39, SNU-449 cells, 10,000 cells per well, free uptake, 2,000 nM oligonucleotide, approx. 48 hours, RTS36584, normalized to RIBOGREEN, Yap1 mRNA relative to untreated control): 15 % UTC

1198770 (k[5mC]*eT*kT*dA*dT*dA*dT*dG*dG*dT*dT*dT*eT*eG*kT*kG; antisense) [Compound 1198770]
YAP1 (% UTC) [2]: 40 % UTC

1198512 (kA*kA*d[5mC]*dT*d[5mC]*dT*dT*dA*dT*dA*dT*eG*kG*eT*kT*eT; antisense) [Compound 1198512]
YAP1 (% UTC) (Table 44 experiment, SNU-449 cells, 10,000 cells per well, free uptake, 2,000 nM, approximately 48 hours, RTS36584, Yap1 mRNA normalized to RIBOGREEN, relative to untreated control cells): 62 % UTC

1198326 (kT*kT*kA*dG*dG*dA*dT*dG*d[5mC]*dA*dT*dG*kG*eT*kT*eT; antisense) [Compound 1198326]
YAP1 (% UT) [5]: 84 % UT
